The subject of data set [1] is δ1 receptors. It counts as binding. The settings on record: guinea pig brain membranes. As to the method:
Therefore, a better assessment of the δ subtype selectivity can be obtained from binding of brain membranes and from antagonism studies in mice. The binding of BNTX to guinea pig brain membranes was determined using the general method of L. L. Werling et al., J. Pharmacol. Exp. Ther., 233, 722 (1985), as modified by A. E. Takemori et al., J. Pharmacol. Exp. Ther., 246, 255 (1988). The radio-ligands employed were [^3 H]DPDPE ([D-Pen ^2, D-Pen^5 ] enkephalin) for δ1 receptors, [^3 H]DSLET([D-Ser^2 -Leu^5 ]enkephalin-Thr^6) for δ^2 receptors, [3H]DAMGO for μ receptors and U69593(trans-(+)-3,4-dichloro-N-methyl-N-[2-(1-pyrididinyl)cyclohexyl]benzeneacetamide) for κ receptors.

Data set [2] concerns the target T1, delta opioid receptor (δ; printed δ1 for DADLE in Table III) (Mus musculus, UniProt P32300).
T1 construct: Both vasa deferentia were dissected out of mice; from tissue; host or cells: mouse vas deferens
The experiment in a line: Mouse vas deferens (MVD) smooth muscle, antagonism of DADLE. It counts as cell-based. As to conditions: data of Table II, MVD/GPI. As to the method: This assay was performed according to the description by G. Henderson et al., Brit. J. Pharmacol., 46, 764 (1972). […] The organ bath was maintained at 37° C.
Concentration-response curves were obtained in the absence (control) and the presence of the antagonist are expressed as IC50 values. […] Therefore, a high IC50 ratio represents a correspondingly high degree of antagonism at a particular receptor. […] Therefore, a low Ke represents a correspondingly high degree of binding at a particular receptor.

Data set [3] addresses T2, κ opioid receptor (Mus musculus, UniProt P33534).
T2 construct: from tissue; host or cells: live mouse (BNTX i.c.v.)
The experiment in a line: Mouse tail flick antinociception, antagonism of U50488H (κ agonist). It counts as in vivo. As to conditions: BNTX 6.25 pmol/i.c.v./mouse. As to the method: (§1) The antagonist effect of BNTX on antinociception was evaluated in mice using the tail flick assay, in accord with the procedure of A. E. Takemor, et al., J. Pharmacol. Exp. Ther., 243, 91 (1987). At least three groups of ten mice were used to generate dose-response curves. A mouse was regarded as positive for antinociception if the latency to flick its tail was more than the control latency plus 3 S.D. of the mean reaction time of the group. The reaction times were determined at the peak time for antinociception after administration of various agonists. Intra-cerebroventricular (i.c.v.) injections were made in a volume of 5 μl by the method of T. J. Haley et al., Br. J. Pharmacol., 12, 12 (1957).
(§2) On Table III, the potencies are expressed as ED50 ratios, which represent the ED50 of the standard agonist administered subcutaneously in the presence of BNTX (6.25 pmoL/i.c.v./mouse), divided by the ED50 of the standard agonist.

The target in data set [4] is T3, μ opioid receptor (Mus musculus, UniProt P42866).
T3 construct: from tissue; host or cells: live mouse (BNTX i.c.v.)
As to the kind of experiment: Mouse tail flick antinociception, antagonism of mu agonist. It counts as in vivo. As to conditions: BNTX 6.25 pmol/i.c.v./mouse. As to the method: as §1, §2

In data set [5] the target is T4, δ2 opioid receptor (Mus musculus, UniProt P32300).
T4 construct: from tissue; host or cells: live mouse (BNTX i.c.v.)
As to the kind of experiment: Mouse tail flick antinociception, antagonism of DSLET. It counts as in vivo. As to conditions: BNTX 6.25 pmol/i.c.v./mouse. As to the method:
as §1, §2

In data set [6] the test system is ethanol drinking. As to conditions: in vivo; cited from earlier work.
Data set [7] deals with ethanol drinking. As to conditions: rats bred for high voluntary ethanol drinking; application Ser. No. 07/750,109; cited from earlier work.
Data set [8] deals with ethanol intake. As to conditions: rat model of alcoholism; cited from earlier work.
The subject of data set [9] is alcohol relapse in recovering alcoholics. The settings on record: cited from earlier work.

Square brackets hold non-standard residues; d marks the D form. Peptide text beside a SMILES is read from it. * marks the point of attachment. Tyr(Nα,Nα-allyl2) = C=CCN(CC=C)[C@@H](Cc1ccc(O)cc1)C(=O)*; Aib = CC(C)(N)C(=O)O

T3 sequence (P42866 whole entry): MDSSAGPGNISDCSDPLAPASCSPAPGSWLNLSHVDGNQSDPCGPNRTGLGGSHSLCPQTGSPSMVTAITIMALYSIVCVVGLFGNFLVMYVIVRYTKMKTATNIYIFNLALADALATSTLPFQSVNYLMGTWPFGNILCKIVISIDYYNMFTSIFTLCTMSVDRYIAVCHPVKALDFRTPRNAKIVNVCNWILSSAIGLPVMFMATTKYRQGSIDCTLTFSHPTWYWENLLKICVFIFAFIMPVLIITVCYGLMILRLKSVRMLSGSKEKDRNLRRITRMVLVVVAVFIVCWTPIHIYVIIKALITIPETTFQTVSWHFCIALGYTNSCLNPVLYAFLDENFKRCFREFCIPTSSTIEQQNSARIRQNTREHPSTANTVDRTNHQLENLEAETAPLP
T2 sequence (P33534 whole entry): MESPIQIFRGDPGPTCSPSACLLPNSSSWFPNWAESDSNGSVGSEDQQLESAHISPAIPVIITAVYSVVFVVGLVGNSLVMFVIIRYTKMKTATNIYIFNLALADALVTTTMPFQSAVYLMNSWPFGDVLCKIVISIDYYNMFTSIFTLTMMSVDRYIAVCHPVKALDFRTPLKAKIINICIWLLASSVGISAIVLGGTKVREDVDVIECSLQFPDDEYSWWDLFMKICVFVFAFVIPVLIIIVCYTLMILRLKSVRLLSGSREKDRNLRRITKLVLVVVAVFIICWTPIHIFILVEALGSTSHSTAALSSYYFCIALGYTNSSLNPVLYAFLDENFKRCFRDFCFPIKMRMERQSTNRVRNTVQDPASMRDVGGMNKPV
T4 sequence (P32300 whole entry): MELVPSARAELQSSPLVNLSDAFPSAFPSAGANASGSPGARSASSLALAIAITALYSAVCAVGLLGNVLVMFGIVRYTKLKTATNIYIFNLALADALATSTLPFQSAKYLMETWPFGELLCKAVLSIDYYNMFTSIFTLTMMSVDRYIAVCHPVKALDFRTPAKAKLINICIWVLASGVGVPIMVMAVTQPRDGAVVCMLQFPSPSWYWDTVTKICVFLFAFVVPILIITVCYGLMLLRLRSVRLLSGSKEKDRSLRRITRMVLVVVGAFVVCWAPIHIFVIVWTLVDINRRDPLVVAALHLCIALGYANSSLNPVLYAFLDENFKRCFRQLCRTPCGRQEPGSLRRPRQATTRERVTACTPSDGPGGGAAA
T1 sequence (P32300 whole entry): as above

With `O=C1C(=Cc2ccccc2)C[C@@]2(O)[C@H]3Cc4ccc(O)c5c4[C@@]2(CCN3CC2CC2)[C@H]1O5` [BNTX, 7-Benzylidene-7-dehydronaltrexone], the “selectivity (binding, words)” value in data set [1] is recorded as “highly selective for δ1 receptor sites”. Further, the “selectivity (smooth muscle, words)” value in [2] is reported as “δ-selective antagonist”. Also, the “shift of dose-response curve, U50488H” value in [3] (words) is reported as “not shifted significantly”. Moreover, the “ED50 Ratio ("Potency Ratio"), U50488H (κ)” value in [3] (ED50 of U50488H in presence of BNTX / ED50 of agonist) stood at 1.2. Further, in data set [4] (words), the “shift of dose-response curve, morphine” value is “not shifted significantly”. Moreover, the “ED50 Ratio ("Potency Ratio"), DAMGO (μ)” value in data set [4] (ED50 of DAMGO (so in the source) in presence of BNTX / ED50 of agonist) was 0.88. The “shift of dose-response curve, DSLET” value in [5] (words) is given as “not shifted significantly”. In addition, the “ED50 Ratio ("Potency Ratio"), DSLET (δ2)” value in [5] (ED50 of DSLET in presence of BNTX / ED50 of agonist) was 0.91.
For the molecule `C=CCN(CC=C)[C@@H](Cc1ccc(O)cc1)C(=O)NC(C)(C)C(=O)NC(C)(C)C(=O)N[C@@H](Cc1ccccc1)C(=O)N[C@@H](CC(C)C)C(=O)O` [ICI 174864, N,N-diallyl-Tyr-Aib-Aib-Phe-Leu-OH] ({Tyr(Nα,Nα-allyl2)}-[Aib][Aib]FL-OH), in data set [6], the duration of action result is “very short duration of action” and the ethanol drinking entry is given as “strongly inhibits ethanol drinking”.
For `Oc1ccc2c3c1O[C@H]1c4oc5ccccc5c4C[C@@]4(O)[C@@H](C2)N(CC2CC2)CC[C@]314` [NTB], the “suppression of ethanol drinking / water intake” value in data set [7] is “unexpectedly prolonged suppression of ethanol drinking without altering water intake”.
As for `Oc1ccc2c3c1O[C@H]1c4[nH]c5ccccc5c4C[C@@]4(O)[C@@H](C2)N(CC2CC2)CC[C@]314` [NTI], the “suppression of ethanol drinking / water intake” value in [7] is reported as “unexpectedly prolonged suppression of ethanol drinking without altering water intake”.
On to `C=CCN1CC[C@]23c4c5ccc(O)c4O[C@H]2C(=O)CC[C@@]3(O)[C@H]1C5` [Naloxone, naloxone], for which, in [8], the “ethanol and water intake” value is on record as “suppress ethanol but not water intake”.
For `O=C1CC[C@@]2(O)[C@H]3Cc4ccc(O)c5c4[C@@]2(CCN3CC2CC2)[C@H]1O5` [Naltrexone, naltrexone], the “incidence of relapse in recovering alcoholics” value in data set [9] was “reduce the incidence of relapse in recovering alcoholics”.
